Assays:
Assay in all cases: Test B pre-/postemergence plant response
Format in all cases: in vivo
[1] = test system: large crabgrass (Digitaria sanguinalis)
Method in brief: (§1)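 Visual injury, 0–100 scale (100 = complete control), rated against controls after 13 to 15 days in greenhouse. Pre-emergence: seeds in loam/sand soil, treated at planting. Post-emergence: 1- to 4-leaf plants (2 to 18 cm) in peat/vermiculite medium. Compounds formulated in non-phytotoxic solvent with surfactant.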

[2] = test system: blackgrass (Alopecurus myosuroides)
Method in brief: as §1

[3] = test system: wild oat (Avena fatua)
Method in brief: as §1

[4] = test system: goosegrass (Eleusine indica)
Method in brief: as §1

[5] = test system: johnsongrass (Sorghum halepense)
Method in brief: as §1

[6] = test system: yellow nutsedge (Cyperus esculentus)
Method in brief: as §1

[7] = test system: Surinam grass (Brachiaria decumbens)
Method in brief: as §1

[8] = test system: kochia (Kochia scoparia)
Method in brief: as §1

[9] = test system: lambsquarters (Chenopodium album)
Method in brief: as §1

[10] = test system: pigweed (Amaranthus retroflexus)
Method in brief: as §1

[11] = test system: soybean (Glycine max)
Method in brief: as §1

[12] = test system: velvetleaf (Abutilon theophrasti)
Method in brief: as §1

[13] = test system: morningglory (Ipomoea coccinea)
Method in brief: as §1

[14] = test system: downy bromegrass (Bromus tectorum)
Method in brief: as §1

[15] = test system: corn (Zea mays)
Method in brief: as §1

[16] = test system: green foxtail (Setaria viridis)
Method in brief: as §1

[17] = test system: woolly cupgrass (Eriochloa villosa); details: for Plant response rating, Cupgrass, Woolly: Postemergence
Method in brief: as §1

[18] = 31 g ai/ha, postemergence, scale 0 to 100, 0 is no effect, 100 is complete control
[19] = 62 g ai/ha, postemergence, 0 is no effect, 100 is complete control, 13 to 15 days
[20] = Postemergence, 125 g ai/ha, visual rating after 13 to 15 days, scale 0 (no effect) to 100 (complete control)
[21] = Postemergence, 250 g ai/ha, scale 0 to 100 (0 no effect, 100 complete control)

Structure (SMILES): CCCCCCn1c(-c2ccccc2)ncc(C(=O)C2=C(O)CCCC2=O)c1=O [Compound 94]
- Plant response rating, Crabgrass, Large [1, 18]: 70
- Crabgrass, Large plant response rating (0 to 100 scale) [1, 19]: 75
- Plant response rating, Crabgrass, Large [1, 20]: 90
- Plant response rating, Crabgrass, Large [1, 21]: 90
- Plant response rating, Blackgrass [2, 18]: 5
- Blackgrass plant response rating (0 to 100 scale) [2, 19]: 10
- Plant response rating, Blackgrass [2, 20]: 10
- Plant response rating, Blackgrass [2, 21]: 20
- Plant response rating, Oat, Wild [3, 18]: 0
- Oat, Wild plant response rating (0 to 100 scale) [3, 19]: 5
- Plant response rating, Oat, Wild [3, 21]: 30
- Plant response rating, Goosegrass [4, 18]: 45
- Goosegrass plant response rating (0 to 100 scale) [4, 19]: 70
- Plant response rating, Goosegrass [4, 21]: 85
- Johnsongrass plant response rating (0 to 100 scale) [5, 19]: 15
- Plant response rating, Johnsongrass [5, 21]: 45
- Plant response rating, Nutsedge, Yellow [6, 18]: 20
- Nutsedge, Yellow plant response rating (0 to 100 scale) [6, 19]: 20
- Plant response rating, Nutsedge, Yellow [6, 21]: 65
- Surinam Grass plant response rating (0 to 100 scale) [7, 19]: 60
- Plant response rating, Surinam Grass [7, 21]: 80
- Kochia plant response rating (0 to 100 scale) [8, 19]: 55
- Plant response rating, Kochia [8, 21]: 90
- Plant response rating, Lambsquarters [9, 18]: 80
- Lambsquarters plant response rating (0 to 100 scale) [9, 19]: 95
- Plant response rating, Lambsquarters [9, 21]: 100
- Plant response rating, Pigweed [10, 18]: 100
- Pigweed plant response rating (0 to 100 scale) [10, 19]: 100
- Plant response rating, Pigweed [10, 21]: 100
- Plant response rating, Soybean [11, 18]: 65
- Soybean plant response rating (0 to 100 scale) [11, 19]: 80
- Plant response rating, Soybean [11, 21]: 95
- Velvetleaf plant response rating (0 to 100 scale) [12, 19]: 70
- Plant response rating, Velvetleaf [12, 21]: 80
- Plant response rating, Morningglory [13, 18]: 55
- Morningglory plant response rating (0 to 100 scale) [13, 19]: 75
- Plant response rating, Morningglory [13, 21]: 100
- Plant response rating, Bromegrass, Downy [14, 18]: 0
- Bromegrass, Downy plant response rating (0 to 100 scale) [14, 19]: 0
- Plant response rating, Bromegrass, Downy [14, 20]: 0
- Plant response rating, Bromegrass, Downy [14, 21]: 0
- Plant response rating, Corn [15, 18]: 0
- Corn plant response rating (0 to 100 scale) [15, 19]: 55
- Plant response rating, Corn [15, 20]: 70
- Plant response rating, Corn [15, 21]: 80
- Plant response rating, Foxtail, Green [16, 18]: 10
- Foxtail, Green plant response rating (0 to 100 scale) [16, 19]: 60
- Plant response rating, Foxtail, Green [16, 21]: 80
- Cupgrass, Woolly plant response rating (0 to 100 scale) [17, 19]: 65
- Plant response rating, Cupgrass, Woolly ([17]; 125 g ai/ha, visual rating after 13 to 15 days, scale 0 (no effect) to 100 (complete control)): 65
- Plant response rating, Cupgrass, Woolly ([17]; 250 g ai/ha, scale 0 to 100 (0 no effect, 100 complete control)): 70

From patent publication US8952024B2, “Herbicidal pyrimidone derivatives” (E I du Pont de Nemours and Company, priority 2009, dated 2015)
